These are literature values, as cited in PubChem BioAssay AID1259410 (Chemical Carcinogenesis Research Information System (CCRIS), 2018).

In this series the test system is rodent tumor promotion studies, tumor incidence. Put plainly: CCRIS tumor promotion studies.

For `N[C@@H](CC(=O)O)C(=O)O`, the outcome reads like this: (Carcinogen: N-BUTYL-N-(4-HYDROXYBUTYL)NITROSAMINE, 3817-11-6, Doses [Carcinogen]: 0.05% IN DRINKING WATER FOR 4 WK, Doses [Promoter]: 0, 5% IN DRINKING WATER FOR 36 WK BEGINNING POST CARCINOGEN TREATMENT (STUDY DURATION: 40 WK), Route [Carcinogen]: ORAL, Route [Promoter]: ORAL, Species: RAT, Strain/Sex: F344/FEMALE) “urinary bladder: carcinoma”; (Carcinogen: N-BUTYL-N-(4-HYDROXYBUTYL)NITROSAMINE, 3817-11-6, Doses [Carcinogen]: 0.05% IN DRINKING WATER FOR 4 WK, Doses [Promoter]: 0, 5% IN DRINKING WATER FOR 36 WK BEGINNING POST CARCINOGEN TREATMENT (STUDY DURATION: 40 WK), Route [Carcinogen]: ORAL, Route [Promoter]: ORAL, Species: RAT, Strain/Sex: F344/MALE) “urinary bladder: carcinoma”.

As to `CCCC(C)C1(CC)C(=O)NC(=O)NC1=O` (configuration not stated), where the note is “Carcinogen: N-NITROSODIETHYLAMINE, 55-18-5, Doses [Carcinogen]: 75 MG/KG BW IN 0.85% SALINE ONCE, Doses [Promoter]: 0, 485 PPM IN DIET FOR DURATION OF STUDY BEGINNING 2 WK POST CARCINOGEN DOSE (STUDY DURATION: 78 WK), Route [Carcinogen]: INTRAPERITONEAL, Route [Promoter]: ORAL, Species: RAT, Strain/Sex: F344/MALE”, the outcome is recorded as “liver: carcinoma, adenoma”. For `C=C(C)[C@@]12OC3(c4ccccc4)O[C@@H]1[C@@H]1[C@@H]4OC4(CO)[C@@H](O)[C@]4(O)C(=O)C(C)=C[C@H]4[C@@]1(O3)[C@H](C)[C@H]2OC(=O)/C=C/C=C/c1ccccc1` (some centres not stated), the outcome (Carcinogen: 7,12-DIMETHYLBENZ[A]ANTHRACENE, 57-97-6, Doses [Carcinogen]: 10 NMOL APPLIED TO BACK ONCE, Doses [Promoter]: 9 NMOL 2/WK FOR 19 WK BEGINNING 1 WK POST CARCINOGEN DOSE (STUDY DURATION: 40 WK), Route [Carcinogen]: DERMAL, Route [Promoter]: DERMAL, Species: MOUSE, Strain/Sex: HRA/SKH/FEMALE) is “skin: papilloma”. With `CCCCN(CCCCO)N=O`, the outcome by setting is: (Carcinogen: DIETHYLNITROSAMINE, 55-18-5, N-METHYLNITROSOUREA, 684-93-5, DIHYDROXY-DI-N- PROPYLNITRASAMINE, 53609-64-6, Carcinogen: DIETHYLNITROSAMINE, 55-18-5, N-METHYLNITROSOUREA, 684-93-5, DIHYDROXY-DI-N- PROPYLNITRASAMINE, 53609-64-6, Doses [Carcinogen]: 100 MG/KG/BW DEN ONCE AT BEGINNING OF STUDY THEN 20 MG/KG/BW MNU ONCE ON D 2, 5, 8 AND 11 OF STUDY FOLLOWED BY 0.1% DHPN, Doses [Promoter]: 0, 0.1% IN DRINKING WATER BEGINNING POST CARCINOGEN TREATMENT AND CONTINUING FOR DURATION OF STUDY (STUDY DURATION: 20 W, Route [Carcinogen]: INTRAPERITONEAL, INTRAPERITONEAL, ORAL, Route [Carcinogen]: INTRAPERITONEAL, INTRAPERITONEAL, ORAL, Route [Promoter]: ORAL, Species: RAT, Strain/Sex: F344/MALE) “urinary bladder: transitional cell papilloma”; (Carcinogen: N-BIS(2-HYDROXYPROPYL)NITROSAMINE, 53609-64-6, N-ETHYL-N-HYDROXYETHYLNITROSAMINE, 13147-25-6, 3,2'-DIMETHYL-4-AMINOB, Carcinogen: N-BIS(2-HYDROXYPROPYL)NITROSAMINE, 53609-64-6, N-ETHYL-N-HYDROXYETHYLNITROSAMINE, 13147-25-6, 3,2'-DIMETHYL-4-AMINOB, Doses [Carcinogen]: 1000 MG/KG IP IN SALINE ON DAY 1 AND 4, 1500 MG/KG IG IN DISTILLED WATER ON DAY 8 AND 11, 75 MG/KG SC IN CORN OIL ON D, Doses [Carcinogen]: 1000 MG/KG IP IN SALINE ON DAY 1 AND 4, 1500 MG/KG IG IN DISTILLED WATER ON DAY 8 AND 11, 75 MG/KG SC IN CORN OIL ON D, Doses [Promoter]: 0, 0.1% IN DRINKING WATER BEGINNING 1 WK POST LAST CARCINOGEN DOSE AND CONTINUING FOR 12 WK (STUDY DURATION: 16 WK), Route [Carcinogen]: INTRAPERITONEAL, GAVAGE, SUBCUTANEOUS, Route [Carcinogen]: INTRAPERITONEAL, GAVAGE, SUBCUTANEOUS, Route [Promoter]: ORAL, Species: RAT, Strain/Sex: F344/MALE) “urinary bladder: tumor”. Take `N[C@@H](Cc1c[nH]c2ccccc12)C(=O)O`: under “Carcinogen: N-(4-(5-NITRO-2-FURYL)-2-THIAZOLYL)FORMAMIDE, Doses [Carcinogen]: DIET, Doses [Promoter]: IN DIET, Route [Carcinogen]: ORAL, Route [Promoter]: ORAL, Species: MOUSE, Strain/Sex: FEMALE”, the outcome is “urinary bladder”.

With `C=C1C(O)C2OC3(CCC(/C=C/C(C)C4CC(C)=CC5(OC(CC(C)(O)C(=O)O)CCC5O)O4)O3)CCC2OC1C(O)CC(C)C1OC2(CCC1C)OCCCC2C` (configuration not stated), under “Carcinogen: 7,12-DIMETHYLBENZ[A]ANTHRACENE, 57-97-6, Doses [Carcinogen]: 100 UG IN 0.1 ML OF ACETONE ONCE, Doses [Promoter]: 0, 5 UG IN 0.1 ML OF ACETONE 2/WK FOR 30 WK BEGINNING 1 WK POST CARCINOGEN DOSE (STUDY DURATION: 31 WK), Route [Carcinogen]: DERMAL, Route [Promoter]: DERMAL, Species: MOUSE, Strain/Sex: CD-1/FEMALE”, the outcome is reported as “skin: tumor”.

Turning to `Cc1ncc([N+](=O)[O-])n1CCO`, the outcome runs as follows: (Carcinogen: 1,2-DIMETHYLHYDRAZINE, 540-73-8, Doses [Carcinogen]: 40 MG/KG/WK FOR 20 WK, Doses [Promoter]: 0, 18 MG/KG/D FOR 20 WK (STUDY DURATION: 20 WK), Route [Carcinogen]: SUBCUTANEOUS, Route [Promoter]: GAVAGE, Species: RAT, Strain/Sex: WISTAR/MALE) “colon: tumor”; (Carcinogen: UV IRRADIATION, Doses [Carcinogen]: 0.53 J/CM2 INCREASED BY 20% EVERY 2 WK TO 1.60 J/CM2 AND MAINTAINED AT 1.60 J/CM2 UNTIL DEATH, ADMINISTERED 5 D/WK FOR 1, Doses [Promoter]: 0, 15 UG/G BEGINNING 2 WK POST FIRST CARCINOGEN DOSE ADMINISTERED 2 HR PRIOR TO EACH CARCINOGEN DOSE (STUDY DURATION: 30, Route [Carcinogen]: DERMAL, Route [Promoter]: INTRAPERITONEAL, Species: MOUSE, Strain/Sex: SKH/HRL/FEMALE) “skin: tumor”. Consider `Cc1ccccc1O`, for which the outcome (Carcinogen: 7,12-DIMETHYLBENZ(A)ANTHRACENE, Doses [Carcinogen]: DERMAL, Route [Carcinogen]: DERMAL, Route [Promoter]: DERMAL, Species: MOUSE, Strain/Sex: FEMALE) was “integumentary system (skin)”. On to `CC(C)=CCC/C(C)=C/CC/C(C)=C/CC/C=C(\C)CC/C=C(\C)CCC=C(C)C`, for which the outcome (Carcinogen: 7,12-DIMETHYLBENZ(A)ANTHRACENE, Doses [Carcinogen]: TOP, Route [Carcinogen]: DERMAL, Route [Promoter]: DERMAL, Species: MOUSE, Strain/Sex: MALE) is listed as “integumentary system (skin)”. As to `CN(CCCC(=O)c1cccnc1)N=O`, the outcome (Carcinogen: Smoke, Doses [Carcinogen]: Exposure to smoke from non-filtered cigarettes for 6 mo, urine cotinine levels suggest equivalence to 1 pack a day human, Doses [Promoter]: 50 mg/kg every 4 wk for total of 4 doses, Route [Carcinogen]: Inhalation, Route [Promoter]: Subcutaneous, Species: Ferret, Strain/Sex: Male ( 9, 12/Group)) was “lung: tumors: squamous cell carcinomas (1/12), adenocarcinomas (3/12) and adenos”. As to `CC(=O)[C@H]1[C@H](C#N)C[C@H]2[C@@H]3CC=C4C[C@@H](O)CC[C@]4(C)[C@H]3CC[C@@]21C`, the outcome (Carcinogen: DIISOPROPANOLNITROSAMINE [53609-64-6], Doses [Carcinogen]: SINGLE DOSE OF 2.5 G/KG BW, Doses [Promoter]: 1000 PPM IN DIET BEGINNING 1 WK AFTER DIPN TREATMENT FOR 19 WKS (STUDY DURATION: 20 WKS), Route [Carcinogen]: SUBCUTANEOUS INJECTION, Route [Promoter]: DIET, Species: RAT, Strain/Sex: SPRAGUE-DAWLEY/MALE) was “thyroid: cystic adenoma, follicular adenoma, and follicular carcinoma”. As for `NC(Cc1c[nH]c2ccccc12)C(=O)O` (configuration not stated), the outcome reads like this: (Carcinogen: 2-NAPHTHYLAMINE, Doses [Carcinogen]: DIET, Doses [Promoter]: IN DIET, Route [Carcinogen]: ORAL, Route [Promoter]: ORAL, Species: DOG, Strain/Sex: FEMALE) “urinary bladder”; (Carcinogen: N-(4-(5-NITRO-2-FURYL)-2-THIAZOLYL)FORMAMIDE, Doses [Carcinogen]: DIET, Doses [Promoter]: IN DIET, Route [Carcinogen]: ORAL, Route [Promoter]: ORAL, Species: RAT, Strain/Sex: F344/MALE) “urinary bladder: papilloma, carcinoma”. `C=C1/C(=C\C=C2/CCC[C@]3(C)[C@@H]([C@H](C)CCC(F)(F)C(C)(C)O)CC[C@@H]23)C[C@H](O)C[C@H]1O`: where the note is “Carcinogen: 7,12-DIMETHYLBENZ[A]ANTHRACENE, 57-97-6, Doses [Carcinogen]: 50 NMOL IN 200 µL ACETONE 2/WK FOR 16 WK, Doses [Promoter]: 0, 0.05, 0.1 NMOL IN 200 µL ACETONE APPLIED 1 HR PRIOR TO CARCINOGEN DOSES 2/WK FOR 16 WK (STUDY DURATION: 16 WK), Doses [Promoter]: 0, 0.05, 0.1 NMOL IN 200 µL ACETONE APPLIED 1 HR PRIOR TO CARCINOGEN DOSES 2/WK FOR 16 WK (STUDY DURATION: 16 WK), Route [Carcinogen]: DERMAL, Route [Promoter]: DERMAL, Species: MOUSE, Strain/Sex: CD-1/FEMALE”, the outcome is reported as “skin: tumors”.
